Where “and” joins values, the source holds several entries; their conditions need not be identical. Equal values may be shown once. Read-outs that look alike come from different tables or passages of the source. Bridge positions count the residues as written; N and C are the ends. Ends that are not written are not given here. Peptide text beside a SMILES is read from it.
What was measured:
[1] = system: encapsulated WT B. anthracis Ames bacilli; conditions: for killing: encapsulated WT Ames bacilli, 2 h
[2] = system: non-encapsulated Sterne strain of B. anthracis; conditions: cited from earlier work
[3] = type: binding, Bacillus anthracis; conditions: n = 3
[4] = system: encapsulated WT B. anthracis Ames bacilli; type: cell-based, Bacillus anthracis
[5] = system: encapsulated killed WT B. anthracis bacilli; type: cell-based, Bacillus anthracis

Row | Molecule | % of 0 μg/ml Control, Mean [1] | killing ([1]; 20 μg/ml) | Killing of the non-encapsulated Sterne strain [2] | Binding to purified capsule (shift in electrophoretic mobility towards the cathode) [3] | Concentrations at which bactericidal activity (significant killing) was observed [1] | other results
1 | CC[C@H](C)[C@@H]1NC(=O)[C@H](CCCCN)NC(=O)[C@H]([C@@H](C)O)NC(=O)[C@H](Cc2ccccc2)NC(=O)[C@H]([C@@H](C)CC)NC(=O)[C@@H]2CCCN2C(=O)[C@@H]2CSSC[C@@H](C(=O)N[C@@H](CCCCN)C(=O)O)NC(=O)[C@@H]3CSSC[C@H](NC(=O)[C@H](CC(N)=O)NC(=O)[C@H](Cc4ccc(O)cc4)NC(=O)[C@H](Cc4c[nH]cn4)NC(=O)[C@@H](N)CC(=O)O)C(=O)N[C@@H](C(C)C)C(=O)N[C@@H](CO)C(=O)N[C@@H](CO)C(=O)NCC(=O)NCC(=O)N[C@@H](CCC(N)=O)C(=O)N[C@@H](CSSC[C@H](NC(=O)[C@H]([C@@H](C)O)NC(=O)CNC(=O)[C@H](CCC(N)=O)NC1=O)C(=O)N[C@@H](Cc1ccc(O)cc1)C(=O)N[C@@H](CCCNC(=N)N)C(=O)NCC(=O)N[C@@H](CCCCN)C(=O)N[C@@H](C)C(=O)N[C@@H](CCCCN)C(=O)N3)C(=O)N[C@@H](CC(C)C)C(=O)N[C@@H](Cc1ccc(O)cc1)C(=O)N[C@@H](CO)C(=O)N[C@@H](C)C(=O)N2 [HBD-1] (H-DHYNCVSSGGQCLYSACPIFTKIQGTCYRGKAKCCK-OH; disulfide 5-34, 12-27, 17-35 (inferred); N-terminus and C-terminus assumed) | 59.1% | 41% | could not | – | – | –
2 | GIGDPVTCLKSGAICHPVFCPRRYKQIGTCGLPGTKCCKKP (disulfide 8-37, 15-30, 20-38 (inferred)) [HBD-2] | 34.5% and 26.0% | 65% | could not | bound to capsule | – | Bactericidal activity against the Sterne strain [2]: modest bactericidal activity
3 | GIINTLQKYYCRVRGGRCAVLSCLPKEEQIGKCSTRGRKCCRRKK (disulfide 11-40, 18-33, 23-41 (inferred)) [HBD-3] | – | 71% | could kill | bound to capsule | 0.2 to 20 µg/mL | killing ([1]; 0.2 μg/ml): 58%; Localisation of HBD-3 on bacilli [4]: only on the outer surface of the capsule; % reduction of MFI [5]: 29.6639% and 31.2268% and 35.1463% and 34.7672%; % reduction of MFI, avg [5]: 32.7011%; mean fluorescence intensity (MFI) [5]: 706.28 and 766.2 and 635.97 and 635.34 and 496.77 and 526.94 and 412.45 and 414.45; mean fluorescence intensity (MFI), avg [5]: 685.947 and 462.653
4 | Nisin | – | – | – | – | 0.1 to 100 µg/mL | –
5 | Polymyxin B | – | – | – | – | 1 to 100 µg/mL | –
6 | Melittin | – | – | – | – | 0.1 to 100 µg/mL | –

Source: article PMC9560598 (PLoS Pathogens, 2022)
